This note sets out measurements from US20130029981A1, “COMPOUNDS, COMPOSITIONS, AND METHODS FOR CONTROLLING BIOFILMS” (Katholieke Universiteit Leuven, priority 2009, published 2013).

Experiment [1] deals with Pseudomonas aeruginosa PA14. In words: Static peg assay for prevention of biofilm formation (Calgary device, crystal violet). The experiment is classed as cell-based. The essentials:
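P. aeruginosa PA14 overnight TSB culture diluted 1:100 into broth with two-fold compound dilutions, biofilms grown 24 h static on polystyrene pegs of a Calgary device at 25 °C (TSB 1/20), 30 °C or 37 °C (CFA and/or LBNS). Biofilm quantified by crystal violet, extracted with 30% acetic acid, A570.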

The subject of another experiment is S. Typhimurium ATCC14028. The description is as above. The experiment is classed as cell-based, Salmonella Typhimurium. The conditions noted are these: 25° C. The essentials:
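Calgary 96-peg device, ca. 10^6 cells of ATCC14028 per well in TSB 1/20 for 24 h at 25° C (or 48 h at 16° C, medium and compound renewed at 24 h), or in CFA broth for 24 h at 37° C, static, with two-fold compound dilutions. Crystal violet stain, acetic acid extraction, OD570. IC50 from 2–3 independent experiments.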

Setting [2] is: Table 11, read-out: IC50 (biofilm formation).
The mark [3] stands for this setting: Table 14, read-out: IC50 biofilm inhibition.
Where [4] appears, read: 25° C., Table 12, read-out: IC50 (biofilm formation).
The mark [5] stands for this setting: 25° C., Table 14, read-out: IC50 biofilm inhibition.
The mark [6] stands for this setting: 25° C., Table 18, read-out: P. aeruginosa IC50 (biofilm formation).
Where [7] appears, read: Table 18, read-out: S. Typhimurium IC50 (biofilm formation).
The mark [8] stands for this setting: 37° C., read-out: IC50 (biofilm formation).

SMILES strings stand for the structures. Where “and” joins values, the source holds several entries; their conditions need not be identical. Equal values may be shown once. Read-outs that look alike come from different tables or passages of the source.

The term IC50 denotes the midpoint of a concentration-inhibition curve.

Turning to `CCCCCCN1c2nccc[n+]2CC1(O)c1ccc([N+](=O)[O-])cc1.[Br-]` (stereo not shown) [Compound 34], the IC50 was determined as 10.9 µM in experiment [1] (25° C., 24 hours, Table 15, read-out: (2) IC50 (biofilm inhibition)); 12.4 µM in experiment [1] (25° C., Table 16, read-out: P. aeruginosa IC50 (biofilm formation)); 54.7 µM in the experiment with S. Typhimurium ATCC14028 (24 hours, Table 15, read-out: (1) IC50 (biofilm inhibition)); 46.8 µM in the experiment with S. Typhimurium ATCC14028 (setting [2]); 46.8 µM in the experiment on S. Typhimurium ATCC14028 (setting [3]); 54.7 µM with S. Typhimurium ATCC14028 (Table 16, read-out: S. Typhimurium IC50 (biofilm formation)).

With `OC1(c2ccc(Cl)cc2)C[n+]2cccnc2N1C1CCCCC1.[Br-]` (stereo not shown) [Compound 64], the IC50 in experiment [1] (setting [4]) is 4.94 µM; in experiment [1] (setting [5]), 4.94 µM; in experiment [1] (setting [6]) it was 10 µM; with S. Typhimurium ATCC14028 (Table 11, listed as R1=cyclohexyl, R3=4-Cl—Ph, R4=H, read-out: IC50 (biofilm formation)), 43.8 µM and 35.6 µM; in the experiment with S. Typhimurium ATCC14028 (Table 14, listed as R1=Cyclohexyl, R3=4-ClPh, R4=H, read-out: IC50 biofilm inhibition), 43.8 µM and 35.6 µM; with S. Typhimurium ATCC14028 (setting [7]), 33 µM.

In the case of `O=[N+]([O-])c1ccc(C2(O)C[n+]3cccnc3N2C2CCCCCCCCCCC2)cc1.[Br-]` (stereo not shown) [Compound 69], the half-inhibitory concentration (IC50) in experiment [1] (setting [4]) was 6.32 µM; in experiment [1] (setting [5]), 6.32 µM; in experiment [1] (setting [6]) it was 6.9 µM; in experiment [1] (setting [8]), 18.2 µM; in the experiment with S. Typhimurium ATCC14028 (setting [2]) it was less than 6.25 µM; in the experiment with S. Typhimurium ATCC14028 (setting [3]), less than 6.25 µM. The IC50 with S. Typhimurium ATCC14028 (setting [7]) is less than 6.3 µM.

Turning to `OC1(c2ccc(I)cc2)C[n+]2cccnc2N1Cc1ccccc1.[Br-]` (stereo not shown) [Compound 73], the IC50 in experiment [1] (setting [4]) was 8.61 µM; in experiment [1] (setting [5]) it was 8.61 µM; in experiment [1] (setting [8]), 175 µM; in the experiment with S. Typhimurium ATCC14028 (Table 11, listed as R1=Bn, R3=4-I—Ph, R4=H, read-out: IC50 (biofilm formation)), 30.7 µM and 26.9 µM; in the experiment with S. Typhimurium ATCC14028 (Table 14, listed as R1=Bn, R3=4-IPh, R4=H, read-out: IC50 biofilm inhibition) it was 26.9 µM; with S. Typhimurium ATCC14028 (Table 14, listed as R1=Bn, R3=4-Iph, R4=H, read-out: IC50 biofilm inhibition) it was 30.7 µM. Also, the IC50 with S. Typhimurium ATCC14028 (Table 19, read-out: IC50 (biofilm formation)) stood at 36.7 µM.

As to `OC1(c2ccc(-c3ccccc3)cc2)C[n+]2cccnc2N1C1CCCC1.[Br-]` (stereo not shown) [R1=Cyclopentyl, R3=4-biphenylyl, R4=H, 1-cyclopentyl-2-hydroxy-2-(4-biphenylyl)-2,3-dihydro-1H-imidazo[1,2-a]pyrimidin-4-ium bromide], the IC50 amounted to 1.57 µM in experiment [1] (Pseudomonas aeruginosa, PA14, 25° C., Table 12, read-out: IC50 (biofilm formation)); 1.57 µM in experiment [1] (Pseudomonas aeruginosa, PA14, 25° C., Table 14, read-out: IC50 biofilm inhibition); 62.1 µM in experiment [1] (Pseudomonas aeruginosa, PA14, 37° C., read-out: IC50 (biofilm formation)); 14.9 µM in the experiment with S. Typhimurium ATCC14028 (Salmonella enterica, Table 11, read-out: IC50 (biofilm formation)); 14.9 µM with S. Typhimurium ATCC14028 (Salmonella enterica, Table 14, read-out: IC50 biofilm inhibition).
